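A five-concentration, 48-hour dose response in 96-well plates underlies each endpoint, interpolated linearly between surrounding concentrations. TGI denotes the concentration required for complete inhibition of growth.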
Tests used:
Experiment in all cases: growth of human tumour cells (NCI), 48 h
786-0 renal = tested on: 786-0 renal
A498 renal = tested on: A498 renal
A549 NSCLC = tested on: A549 NSCLC
ACHN renal = tested on: ACHN renal
BT-549 breast = tested on: BT-549 breast
CAKI-1 renal = tested on: CAKI-1 renal
CCRF-CEM leukemia = tested on: CCRF-CEM leukemia
COLO 205 colon = tested on: COLO 205 colon
DU-145 prostate = tested on: DU-145 prostate
EKVX NSCLC = tested on: EKVX NSCLC
HCT-116 colon = tested on: HCT-116 colon
HCT-15 colon = tested on: HCT-15 colon
HL-60(TB) leukemia = tested on: HL-60(TB) leukemia
HOP-62 NSCLC = tested on: HOP-62 NSCLC
HOP-92 NSCLC = tested on: HOP-92 NSCLC
HS 578T breast = tested on: HS 578T breast
HT29 colon = tested on: HT29 colon
IGROV1 ovarian = tested on: IGROV1 ovarian
K-562 leukemia = tested on: K-562 leukemia
KM12 colon = tested on: KM12 colon
LOX IMVI melanoma = tested on: LOX IMVI melanoma
M14 melanoma = tested on: M14 melanoma
MALME-3M melanoma = tested on: MALME-3M melanoma
MCF7 breast = tested on: MCF7 breast
MDA-MB-231 breast = tested on: MDA-MB-231 breast
MDA-MB-435 = tested on: MDA-MB-435
MDA-N = tested on: MDA-N
MOLT-4 leukemia = tested on: MOLT-4 leukemia
NCI-H226 lung = tested on: NCI-H226 lung
NCI-H23 lung = tested on: NCI-H23 lung
NCI-H460 lung = tested on: NCI-H460 lung
NCI-H522 lung = tested on: NCI-H522 lung
NCI/ADR-RES ovarian = tested on: NCI/ADR-RES ovarian
OVCAR-3 ovarian = tested on: OVCAR-3 ovarian
OVCAR-4 ovarian = tested on: OVCAR-4 ovarian
PC-3 prostate = tested on: PC-3 prostate
RPMI-8226 leukemia = tested on: RPMI-8226 leukemia
RXF 393 renal = tested on: RXF 393 renal
SF-268 CNS = tested on: SF-268 CNS
SF-295 CNS = tested on: SF-295 CNS
SF-539 CNS = tested on: SF-539 CNS
SK-MEL-2 melanoma = tested on: SK-MEL-2 melanoma
SK-MEL-28 melanoma = tested on: SK-MEL-28 melanoma
SK-MEL-5 melanoma = tested on: SK-MEL-5 melanoma
SK-OV-3 ovarian = tested on: SK-OV-3 ovarian
SN12C renal = tested on: SN12C renal
SNB-19 CNS = tested on: SNB-19 CNS
SNB-75 CNS = tested on: SNB-75 CNS
SR leukemia = tested on: SR leukemia
SW-620 colon = tested on: SW-620 colon
T-47D breast = tested on: T-47D breast
TK-10 renal = tested on: TK-10 renal
U251 CNS = tested on: U251 CNS
UACC-257 melanoma = tested on: UACC-257 melanoma
UACC-62 melanoma = tested on: UACC-62 melanoma
UO-31 renal = tested on: UO-31 renal
HCC-2998 colon = tested on: HCC-2998 colon
OVCAR-5 ovarian = tested on: OVCAR-5 ovarian
OVCAR-8 ovarian = tested on: OVCAR-8 ovarian

Structure (SMILES): O=C(OCCC12CC3CC(CC(C3)C1)C2)c1ccc(NCc2cc(O)ccc2O)cc1
- TGI (786-0 renal): 4.73 µM
- TGI (A498 renal): 4.83 µM
- TGI (A549 NSCLC): 15.7 µM
- TGI (ACHN renal): 5.18 µM
- TGI (BT-549 breast): 0.684 µM
- TGI (CAKI-1 renal): 1.11 µM
- TGI (CCRF-CEM leukemia): 15.9 µM
- TGI (COLO 205 colon): 1.2 µM
- TGI (DU-145 prostate): 13.7 µM
- TGI (EKVX NSCLC): 4.88 µM
- TGI (HCT-116 colon): 5.68 µM
- TGI (HCT-15 colon): 3.53 µM
- TGI (HL-60(TB) leukemia): 853 nM
- TGI (HOP-62 NSCLC): 13.4 µM
- TGI (HOP-92 NSCLC): 16.8 µM
- TGI (HS 578T breast): 542 nM
- TGI (HT29 colon): 10.6 µM
- TGI (IGROV1 ovarian): 277 nM
- TGI (K-562 leukemia): 10.6 µM
- TGI (KM12 colon): 3.43 µM
- TGI (LOX IMVI melanoma): 4.37 µM
- TGI (M14 melanoma): 3.37 µM
- TGI (MALME-3M melanoma): 3.81 µM
- TGI (MCF7 breast): > 100 µM
- TGI (MDA-MB-231 breast): 5.31 µM
- TGI (MDA-MB-435): 3.84 µM
- TGI (MDA-N): 3.38 µM
- TGI (MOLT-4 leukemia): 10.3 µM
- TGI (NCI-H226 lung): 8.62 µM
- TGI (NCI-H23 lung): 3.28 µM
- TGI (NCI-H460 lung): > 100 µM
- TGI (NCI-H522 lung): 0.35 µM
- TGI (NCI/ADR-RES ovarian): 11.1 µM
- TGI (OVCAR-3 ovarian): 0.626 µM
- TGI (OVCAR-4 ovarian): 3.17 µM
- TGI (PC-3 prostate): 14.5 µM
- TGI (RPMI-8226 leukemia): 0.666 µM
- TGI (RXF 393 renal): 4.9 µM
- TGI (SF-268 CNS): 12.7 µM
- TGI (SF-295 CNS): 5.25 µM
- TGI (SF-539 CNS): 2080 nM
- TGI (SK-MEL-2 melanoma): 2.83 µM
- TGI (SK-MEL-28 melanoma): 2.24 µM
- TGI (SK-MEL-5 melanoma): 2.51 µM
- TGI (SK-OV-3 ovarian): 13.1 µM
- TGI (SN12C renal): 11.2 µM
- TGI (SNB-19 CNS): 3.23 µM
- TGI (SNB-75 CNS): 2.99 µM
- TGI (SR leukemia): 4.43 µM
- TGI (SW-620 colon): 6.56 µM
- TGI (T-47D breast): 0.584 µM
- TGI (TK-10 renal): 4.65 µM
- TGI (U251 CNS): 2.95 µM
- TGI (UACC-257 melanoma): 2380 nM
- TGI (UACC-62 melanoma): 3.61 µM
- TGI (UO-31 renal): 1.58 µM

Structure (SMILES): c1ccc(N=C2SC3=NCCN3C2=Nc2ccccc2)cc1
- TGI (A498 renal): 36.4 µM
- TGI (BT-549 breast): 34.7 µM
- TGI (CAKI-1 renal): 38.2 µM
- TGI (CCRF-CEM leukemia): 11.8 µM
- TGI (COLO 205 colon): 33.3 µM
- TGI (DU-145 prostate): 28.8 µM
- TGI (HCC-2998 colon): 52.4 µM
- TGI (HCT-116 colon): 26.8 µM
- TGI (HCT-15 colon): 61.4 µM
- TGI (HOP-62 NSCLC): 52.9 µM
- TGI (HOP-92 NSCLC): 60.6 µM
- TGI (HS 578T breast): > 100000 nM
- TGI (HT29 colon): 41.3 µM
- TGI (K-562 leukemia): > 100 µM
- TGI (KM12 colon): 29.7 µM
- TGI (M14 melanoma): 37.8 µM
- TGI (MCF7 breast): 24.9 µM
- TGI (MDA-MB-231 breast): 60.5 µM
- TGI (MDA-MB-435): 43 µM
- TGI (MDA-N): 41.2 µM
- TGI (MOLT-4 leukemia): 77 µM
- TGI (NCI-H226 lung): 36.3 µM
- TGI (NCI-H23 lung): 52.9 µM
- TGI (NCI-H460 lung): 50.6 µM
- TGI (NCI-H522 lung): 30.4 µM
- TGI (NCI/ADR-RES ovarian): > 100 µM
- TGI (OVCAR-3 ovarian): 36 µM
- TGI (OVCAR-5 ovarian): 34.9 µM
- TGI (OVCAR-8 ovarian): > 100 µM
- TGI (PC-3 prostate): 60.6 µM
- TGI (RPMI-8226 leukemia): 83.8 µM
- TGI (RXF 393 renal): 32.2 µM
- TGI (SF-295 CNS): 41.7 µM
- TGI (SK-MEL-2 melanoma): 76.5 µM
- TGI (SK-MEL-28 melanoma): 35 µM
- TGI (SK-MEL-5 melanoma): 28.9 µM
- TGI (SK-OV-3 ovarian): > 100 µM
- TGI (SN12C renal): 70 µM
- TGI (SNB-19 CNS): 32.5 µM
- TGI (SNB-75 CNS): 43.3 µM
- TGI (SR leukemia): > 100 µM
- TGI (T-47D breast): 44.4 µM
- TGI (U251 CNS): 33.5 µM
- TGI (UACC-62 melanoma): 22.7 µM
- TGI (UO-31 renal): 26.4 µM
